These are literature values, as cited in patent US20020068365A1, “CONTROLLED RELEASE NITRIC OXIDE PRODUCING AGENTS” (priority 1998, published 2002).

SMILES strings stand for the structures.

For data set [1] the following is noted: L-arginine free base.
For data set [2] the following is noted: 30 grams of L-arginine as an infusion.

`N=C(N)NCCC[C@H](N)C(=O)O` [L-arginine]: the pH range in data set [1] is on record as 10.5-12.0. Moreover, the “rise of circulating levels of L-arginine compared to baseline levels” value in data set [2] is on record as “up to 100 fold”.
